In US7557092B2, “Purinergic modulation of smell” (University of Utah Research Foundation, priority 2002, dated 2009):
Where two headings read alike, the source gives them in different places. One block for each molecule: values may come before it.

Legend:
[1] = molecular target: T1, P2X5 (Rattus norvegicus, UniProt P51578); conditions: cDNA from Rat ganglia; cited from earlier work
T1 construct: host or cells: Xenopus oocytes
T1 sequence (P51578 1-455): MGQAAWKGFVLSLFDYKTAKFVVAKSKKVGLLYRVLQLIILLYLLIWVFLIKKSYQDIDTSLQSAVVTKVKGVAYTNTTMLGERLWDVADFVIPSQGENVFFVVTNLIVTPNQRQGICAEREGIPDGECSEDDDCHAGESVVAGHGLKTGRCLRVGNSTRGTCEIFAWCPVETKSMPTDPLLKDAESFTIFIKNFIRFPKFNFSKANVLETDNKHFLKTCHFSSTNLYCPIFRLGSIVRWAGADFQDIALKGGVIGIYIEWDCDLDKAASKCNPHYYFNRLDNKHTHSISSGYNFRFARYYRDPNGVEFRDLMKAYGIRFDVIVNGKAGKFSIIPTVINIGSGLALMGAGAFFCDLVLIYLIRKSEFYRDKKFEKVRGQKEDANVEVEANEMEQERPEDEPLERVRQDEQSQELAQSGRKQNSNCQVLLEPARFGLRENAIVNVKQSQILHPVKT

[2] = molecular target: T2, P2X6 (Rattus norvegicus, UniProt P51579); conditions: cDNA from Rat superior cervical ganglion; cited from earlier work
T2 construct: host or cells: Xenopus oocytes
T2 sequence (P51579 whole entry): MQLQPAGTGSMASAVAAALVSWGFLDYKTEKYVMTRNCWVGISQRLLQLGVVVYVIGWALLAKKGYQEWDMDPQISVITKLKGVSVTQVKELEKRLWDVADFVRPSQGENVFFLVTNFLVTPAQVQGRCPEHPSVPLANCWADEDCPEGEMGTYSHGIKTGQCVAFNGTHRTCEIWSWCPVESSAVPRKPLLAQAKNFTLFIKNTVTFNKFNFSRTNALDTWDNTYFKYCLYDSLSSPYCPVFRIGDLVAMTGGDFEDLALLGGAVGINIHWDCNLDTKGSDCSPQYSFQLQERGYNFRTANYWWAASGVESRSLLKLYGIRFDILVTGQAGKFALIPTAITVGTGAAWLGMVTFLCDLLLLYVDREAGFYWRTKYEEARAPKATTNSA

[3] = molecular target: T3, P2X2 (Rattus norvegicus, UniProt P49653); conditions: cDNA from Rat PC12 cells; cited from earlier work
T3 construct: host or cells: Xenopus oocytes
T3 sequence (P49653 1-472): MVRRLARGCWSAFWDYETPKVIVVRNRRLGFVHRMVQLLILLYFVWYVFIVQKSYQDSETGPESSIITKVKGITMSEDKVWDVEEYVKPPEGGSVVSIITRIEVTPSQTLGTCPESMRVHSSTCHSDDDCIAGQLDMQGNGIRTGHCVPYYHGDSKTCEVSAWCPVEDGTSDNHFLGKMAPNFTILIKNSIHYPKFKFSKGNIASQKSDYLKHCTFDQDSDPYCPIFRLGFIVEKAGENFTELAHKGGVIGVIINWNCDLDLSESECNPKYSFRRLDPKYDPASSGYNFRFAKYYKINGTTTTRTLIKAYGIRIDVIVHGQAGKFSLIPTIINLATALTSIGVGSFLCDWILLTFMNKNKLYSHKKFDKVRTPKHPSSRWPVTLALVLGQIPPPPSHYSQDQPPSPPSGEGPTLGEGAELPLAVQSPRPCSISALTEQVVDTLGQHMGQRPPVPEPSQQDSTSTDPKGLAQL

[4] = molecular target: T4, P2X4 (Rattus norvegicus, UniProt P51577); conditions: cDNA from Rat superior cervical ganglion; cited from earlier work
T4 construct: host or cells: Xenopus oocytes
T4 sequence (P51577 1-388): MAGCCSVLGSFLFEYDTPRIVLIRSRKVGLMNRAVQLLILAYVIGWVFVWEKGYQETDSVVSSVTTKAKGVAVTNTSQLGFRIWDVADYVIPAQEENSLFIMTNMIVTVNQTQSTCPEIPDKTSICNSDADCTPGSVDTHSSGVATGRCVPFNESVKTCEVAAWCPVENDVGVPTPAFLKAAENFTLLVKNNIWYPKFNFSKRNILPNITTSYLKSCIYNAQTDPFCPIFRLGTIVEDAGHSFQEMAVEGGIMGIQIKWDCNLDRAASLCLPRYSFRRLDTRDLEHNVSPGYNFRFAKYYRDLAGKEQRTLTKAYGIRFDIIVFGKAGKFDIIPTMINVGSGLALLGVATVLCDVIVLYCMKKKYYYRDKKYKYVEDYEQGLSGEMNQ

[5] = molecular target: P2Y1 (Rattus norvegicus, UniProt P49651); conditions: cited from earlier work
Chain of P2Y1 (Rattus norvegicus, UniProt P49651) (P49651 whole entry): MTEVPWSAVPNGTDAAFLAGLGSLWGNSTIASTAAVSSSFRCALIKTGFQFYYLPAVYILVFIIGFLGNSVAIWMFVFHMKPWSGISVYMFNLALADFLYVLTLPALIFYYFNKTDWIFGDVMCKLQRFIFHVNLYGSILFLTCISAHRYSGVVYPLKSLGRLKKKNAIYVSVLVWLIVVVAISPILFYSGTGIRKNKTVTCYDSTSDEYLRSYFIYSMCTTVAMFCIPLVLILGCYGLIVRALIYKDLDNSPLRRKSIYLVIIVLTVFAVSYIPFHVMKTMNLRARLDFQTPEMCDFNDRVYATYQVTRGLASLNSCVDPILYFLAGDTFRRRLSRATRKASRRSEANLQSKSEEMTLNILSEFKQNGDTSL

[6] = molecular target: T5, P2Y11 (Homo sapiens, UniProt Q96G91); conditions: cDNA from Human placenta; cited from earlier work
T5 sequence (Q96G91 1-374): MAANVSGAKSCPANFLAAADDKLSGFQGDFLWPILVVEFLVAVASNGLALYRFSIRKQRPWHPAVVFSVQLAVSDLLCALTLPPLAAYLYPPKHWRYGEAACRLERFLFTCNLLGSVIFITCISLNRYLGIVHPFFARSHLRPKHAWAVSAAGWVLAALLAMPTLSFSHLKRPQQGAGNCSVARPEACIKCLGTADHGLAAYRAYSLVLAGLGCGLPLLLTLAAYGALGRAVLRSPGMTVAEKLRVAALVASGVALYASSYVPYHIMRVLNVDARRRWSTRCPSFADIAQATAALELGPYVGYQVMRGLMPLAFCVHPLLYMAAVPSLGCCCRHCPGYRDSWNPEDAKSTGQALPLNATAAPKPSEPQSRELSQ

[7] = tested on: odor responses of mouse ORNs in olfactory epithelium slices; assay: co-application of odor and purinergic receptor agonist, calcium transients in olfactory epithelium slices; type: cell-based
[8] = tested on: ORNs in mouse olfactory epithelium slices; assay: confocal calcium imaging of fluo-4 AM loaded olfactory epithelium slices, ORNs; type: cell-based; conditions: for agonist-evoked calcium transients in ORNs: 10 μM agonist superfused onto slice; for evoked calcium transients in olfactory epithelial slices: superfused onto olfactory epithelial slices (ORNs and sustentacular cells)
From the text: (§1) To study the effects of ATP on odor responses, acutely prepared slices of mouse olfactory epithelium were used. Confocal imaging of fluo-4 AM-loaded olfactory epithelium slices allows simultaneous recording from identified structures within the olfactory epithelium, i.e., both ORNs and sustentacular cells. […] The difference in robustness can be due to poor access to the ATP stimulus: odorant receptors are on the cilia of the ORNs, which extend beyond the outer edge of the olfactory epithelium, whereas purinergic receptors are located deeper within the olfactory epithelium. […] The latency of activation for the ATP-evoked calcium transient was shorter in the ORN (FIG. 3B2, solid up arrowhead) than in sustentacular cells (FIG. 3B3, open down arrowhead). Collectively, this was consistent with ORNs expressing the faster P2X receptors, and the sustentacular cells expressing the slower G-protein coupled P2Y receptors.
(§2) To prepare olfactory epithelium slices, neonatal mice (postnatal day 0-6) were quickly decapitated, and the skin and lower jaw were removed. Tissue was mounted in ice cold Ringers onto a vibratome-cutting block and 300 μm slices were made. Primary cultures of mouse ORNs were made using the same protocol and culture conditions as described for rat olfactory receptor neurons (Vargas and Lucero, 1999a). Briefly, tissue was placed in divalent cation-free Ringers containing 10 mg/ml bovine serum albumin, 1 mg/ml deoxyribonuclease II and 44 U/ml dispase, incubated at 37° C. for 45 min. The tissue was washed, triturated, and filtered through a […] mesh and […] cells were plated onto concanavalin A-coated coverslips and allowed to settle for 20 min. An additional 1.5 ml of culture medium was added (DMEM supplemented with […] ascorbic acid, 1X insulin-transferrin-seleniumX (GIBCO BRL), 2 mM glutamine, 100 U/ml penicillin G and […] streptomycin).
(§3) [Ca^2+]i was determined using confocal imaging of fluo-4 AM (18 μM; Molecular Probes) loaded cells and slices. Cells or slices were placed in a laminar flow chamber (Warner Instruments) and perfused continuously with Ringers solution at a flow rate of 1.5-2.0 ml/min. Ringers contained (mM): 140 NaCl, 5 KCl, 1 MgCl2, 2 CaCl2, 10 HEPES, 10 glucose, […] and 400 nM tetrodotoxin. Test solutions were applied using bath exchange and a small volume loop injector (200 μl). A Zeiss LSM 510 confocal laser scanning system was used for data collection and analysis. Time series experiments were performed collecting 1400×700 pixel images at 0.2-0.4 Hz. The fluorometric signals obtained are expressed as relative fluorescence change, ΔF/F═(F−F0)/F0, where F0 is the basal fluorescence level. Increases in F greater than 10% above baseline noise were considered responses.

[9] = molecular target: T6, P2X7 (Rattus norvegicus, UniProt Q64663); conditions: cDNA from Rat macrophage and brain; cited from earlier work
T6 construct: host or cells: Xenopus oocytes
T6 sequence (Q64663 1-595): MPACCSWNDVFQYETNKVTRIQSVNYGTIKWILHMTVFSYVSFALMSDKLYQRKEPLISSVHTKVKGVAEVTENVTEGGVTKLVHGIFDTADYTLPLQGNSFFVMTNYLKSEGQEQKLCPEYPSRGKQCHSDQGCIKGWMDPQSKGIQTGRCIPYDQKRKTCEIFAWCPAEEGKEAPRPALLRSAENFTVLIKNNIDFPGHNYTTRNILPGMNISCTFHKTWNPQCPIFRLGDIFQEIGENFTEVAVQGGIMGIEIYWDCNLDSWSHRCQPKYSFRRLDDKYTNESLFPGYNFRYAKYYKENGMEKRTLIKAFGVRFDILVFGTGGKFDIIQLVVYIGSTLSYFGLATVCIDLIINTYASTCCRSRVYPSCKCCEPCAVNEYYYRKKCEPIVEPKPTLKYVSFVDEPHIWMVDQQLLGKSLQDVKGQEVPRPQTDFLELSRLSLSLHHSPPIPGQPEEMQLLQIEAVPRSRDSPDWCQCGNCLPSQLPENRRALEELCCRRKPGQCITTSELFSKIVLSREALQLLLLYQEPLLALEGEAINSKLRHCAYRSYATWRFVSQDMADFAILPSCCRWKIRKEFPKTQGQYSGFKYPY

[10] = molecular target: P2Y1 (Meleagris gallopavo, UniProt P49652); conditions: cDNA from Turkey brain; cited from earlier work
Chain of P2Y1 (Meleagris gallopavo, UniProt P49652) (P49652 whole entry): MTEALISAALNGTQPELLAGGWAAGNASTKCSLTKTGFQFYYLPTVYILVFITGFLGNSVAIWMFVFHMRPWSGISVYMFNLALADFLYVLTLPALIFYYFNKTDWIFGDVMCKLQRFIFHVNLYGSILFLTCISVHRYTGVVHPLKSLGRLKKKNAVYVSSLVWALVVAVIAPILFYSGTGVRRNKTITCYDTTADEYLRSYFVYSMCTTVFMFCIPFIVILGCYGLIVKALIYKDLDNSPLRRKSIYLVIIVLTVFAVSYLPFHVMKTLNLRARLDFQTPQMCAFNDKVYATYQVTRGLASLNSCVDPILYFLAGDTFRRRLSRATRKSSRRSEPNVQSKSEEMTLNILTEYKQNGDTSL

[11] = molecular target: P2Y1 (Gallus gallus, UniProt P34996); conditions: cDNA from Chick brain; cited from earlier work
Chain of P2Y1 (Gallus gallus, UniProt P34996) (P34996 whole entry, the tested form may be a part): as the sequence (P49652 whole entry) above, with S28T counted along it

[12] = tested on: sustentacular cells in mouse olfactory epithelium slices; assay: confocal calcium imaging of fluo-4 AM loaded olfactory epithelium slices, sustentacular cells; type: cell-based; conditions: for agonist-evoked calcium transients in sustentacular cells: 10 μM agonist superfused onto slice
From the text: as §1, §2, §3

[13] = co-application of 10 μM βγ-methylene ATP and odor, 2/16 cells
[14] = ORNs, PPADS 25 μm, reversible, n=5
[15] = sustentacular cells, PPADS, n=30

Structure (SMILES): Nc1ncnc2c1ncn2[C@@H]1O[C@H](COP(=O)(O)CP(=O)(O)OP(=O)(O)O)[C@@H](O)[C@H]1O [α,β-meATP, α,β-methylene ATP]
- Agonist activity [1]: α,β-meATP inactive
- Agonist activity [2]: ATP > 2MeSATP > ADP; α,β-meATP inactive
- Agonist activity [3]: 2MeSATP > ATP; α,β-meATP inactive
- Agonist activity [4]: ATP; α,β-meATP inactive
- Agonist activity ([5]; cDNA from Rat insulinoma cells): (α,β-meATP inactive)

Structure (SMILES): O=c1ccn([C@@H]2O[C@H](COP(=O)(O)OP(=O)(O)OP(=O)(O)O)[C@@H](O)[C@H]2O)c(=O)[nH]1 [UTP]
- Agonist activity [6]: (UTP, UDP inactive)
- effect on co-application evoked calcium transient ([7]; P2Y selective agonists co-applied with odor): suppressed the co-application evoked calcium transient
- agonist-evoked calcium transients in ORNs [8]: evoked calcium transients
- Agonist activity [9]: BzATP > ATP > 2MeSATP > ADP; UTP inactive
- Agonist activity [10]: 2MeSATP > ADP > ATP; (UTP inactive)
- Agonist activity ([5]; cDNA from Rat ileal myocytes): (UTP inactive)
- Agonist activity [11]: 2MeSATP > ATP > ADP; (UTP inactive)
- agonist-evoked calcium transients in sustentacular cells [12]: evoked calcium transients

- ORNs with enhanced calcium transient amplitude ([7]; co-application of 10 μM βγ-MeATP and odors, 2 slices): 2/16
- ORNs with suppressed calcium transient amplitude ([7]; co-application of 10 μM βγ-MeATP and odors, 6 slices): 12/16
- enhancement of calcium transient amplitude [7, 13]: 168±44%
- suppression of Ca2+ transient amplitude ([7]; co-application of 10 μM βγ-methylene ATP and odor, 2/16 cells as printed): 42±5%
- reduction in the average amplitude of the Ca2+ transient, overall ([7]; co-application of 10 μM βγ-methylene ATP and odor, 16/16 cells): 25±11%
Structure (SMILES): Nc1ncnc2c1ncn2[C@@H]1O[C@H](COP(=O)(O)OP(=O)(O)CP(=O)(O)O)[C@@H](O)[C@H]1O [βγ-methylene ATP, β,γ-methylene ATP]
- change of amplitude in cells with no effect [7, 13]: 15±1%
- agonist-evoked calcium transients in ORNs [8]: responded
- agonist-evoked calcium transients in sustentacular cells [12]: not the sustentacular cells

Structure (SMILES): Cc1nc(N=Nc2ccc(S(=O)(=O)O)cc2S(=O)(=O)O)c(COP(=O)(O)O)c(C=O)c1O [PPADS, pyridoxalphosphate-6-azophenyl-2′,4′-disulfonic acid]
- block of ATP-evoked calcium transients [8, 14]: 87±5%
- block of UTP-evoked calcium transients [8, 14]: 92±3%
- block of ATP-evoked Ca2+ transients [12, 15]: 82±2%
- block of UTP-evoked Ca2+ transients [12, 15]: 76±2%

Structure (SMILES): Nc1ncnc2c1ncn2[C@@H]1O[C@H](CO)[C@@H](O)[C@H]1O [Adenosine]
- evoked calcium transients in olfactory epithelial slices [8]: never observed

Structure (SMILES): Nc1ncnc2c1ncn2[C@@H]1O[C@H](COP(=O)(O)O)[C@@H](O)[C@H]1O [AMP]
- evoked calcium transients in olfactory epithelial slices [8]: never observed

Structure (SMILES): O=c1ccn([C@@H]2O[C@H](COP(=O)(O)OP(=O)(O)O)[C@@H](O)[C@H]2O)c(=O)[nH]1 [UDP]
- Agonist activity [6]: (UTP, UDP inactive)
